Results as given in ChEMBL document CHEMBL4219089, “Targeting RORs nuclear receptors by novel synthetic steroidal inverse agonists for autoimmune disorders” (Bioorg Med Chem, 2018).

Legend:
HepG2 [1] = assay: Cytotoxicity against human HepG2 cells assessed as effect on cell viability at 25 to 50 uM after 24 hrs by MTT assay; type: cell-based; conditions: hepg2, 24 h
Estrogen receptor [2] = molecular target: T1, Estrogen receptor (Homo sapiens, UniProt P03372); assay: Estrogenic activity at estrogen receptor in human MCF7 cells assessed as increase in GREB1 gene expression at 2 uM after 24 hrs by qRT-PCR analysis; type: ADME, cell-based; conditions: mcf7, 24 h
T1 sequence (P03372 whole entry): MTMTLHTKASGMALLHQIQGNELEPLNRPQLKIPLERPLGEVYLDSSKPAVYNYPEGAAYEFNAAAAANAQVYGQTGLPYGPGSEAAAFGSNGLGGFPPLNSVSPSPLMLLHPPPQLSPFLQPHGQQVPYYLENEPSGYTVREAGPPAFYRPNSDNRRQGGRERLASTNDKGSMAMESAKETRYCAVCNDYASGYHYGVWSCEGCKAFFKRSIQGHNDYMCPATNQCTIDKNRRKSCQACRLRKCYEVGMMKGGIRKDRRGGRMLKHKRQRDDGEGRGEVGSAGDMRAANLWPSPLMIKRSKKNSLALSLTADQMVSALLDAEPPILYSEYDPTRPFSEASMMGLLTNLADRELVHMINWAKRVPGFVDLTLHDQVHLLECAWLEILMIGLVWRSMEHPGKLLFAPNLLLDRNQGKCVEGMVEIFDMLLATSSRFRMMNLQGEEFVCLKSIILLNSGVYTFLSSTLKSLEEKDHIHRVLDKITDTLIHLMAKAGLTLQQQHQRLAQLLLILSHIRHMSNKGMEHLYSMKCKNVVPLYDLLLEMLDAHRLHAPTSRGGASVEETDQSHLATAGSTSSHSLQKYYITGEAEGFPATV

Estrogen receptor [3] = molecular target: T1, Estrogen receptor; assay: Estrogenic activity at estrogen receptor in human MCF7 cells assessed as increase in CXCL12 gene expression at 2 uM after 24 hrs by qRT-PCR analysis; type: ADME, cell-based; conditions: mcf7, 24 h
[4] = molecular target: T2, Nuclear receptor ROR-gamma (Homo sapiens) (UniProt P51449); assay: (§1) Inverse agonist activity at Gal4-fused RORgammat LBD (unknown origin) expressed in HEK293 cells measured after 48 hrs post transfection by dual-luciferase reporter gene assay; type: cell-based
T2 sequence (whole entry): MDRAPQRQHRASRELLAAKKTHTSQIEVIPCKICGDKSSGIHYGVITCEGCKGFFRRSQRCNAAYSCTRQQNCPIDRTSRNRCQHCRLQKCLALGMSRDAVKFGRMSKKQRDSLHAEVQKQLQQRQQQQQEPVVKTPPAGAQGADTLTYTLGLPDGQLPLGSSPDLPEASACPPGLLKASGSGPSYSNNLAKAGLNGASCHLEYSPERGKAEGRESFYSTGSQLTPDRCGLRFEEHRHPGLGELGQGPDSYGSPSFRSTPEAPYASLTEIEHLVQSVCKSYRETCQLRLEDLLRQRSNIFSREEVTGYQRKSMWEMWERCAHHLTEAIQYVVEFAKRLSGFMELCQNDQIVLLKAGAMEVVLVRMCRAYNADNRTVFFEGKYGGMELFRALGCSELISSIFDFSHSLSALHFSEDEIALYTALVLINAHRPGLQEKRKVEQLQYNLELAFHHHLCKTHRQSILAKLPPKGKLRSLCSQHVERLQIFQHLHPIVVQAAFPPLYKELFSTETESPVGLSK

[5] = molecular target: T3, Nuclear receptor ROR-gamma (Homo sapiens, UniProt P51449); assay: as §1; type: cell-based
T3 sequence (P51449 whole entry): T2 sequence (whole entry)

HEK293 [6] = assay: Cytotoxicity against HEK293 cells assessed as effect on cell viability at 10 to 20 uM after 24 hrs by MTT assay; type: cell-based; conditions: human, hek293, 24 h
HEK293 [7] = assay: Cytotoxicity against HEK293 cells expressing GAL4-fused RORgammat assessed as effect on cell viability at 10 to 20 uM after 24 hrs by MTT assay; type: cell-based; conditions: human, hek293, 24 h
HepG2 [8] = assay: Cell cycle arrest in human HepG2 cells at 10 to 20 uM after 24 hrs by propidium iodide staining based flow cytometric analysis; type: ADME; conditions: hepg2, 24 h
HEK293 [9] = assay: Cell cycle arrest in HEK293 cells at 10 to 20 uM after 24 hrs by propidium iodide staining based flow cytometric method; conditions: human, hek293, 24 h
HEK293 [10] = assay: Cell cycle arrest in HEK293 cells expressing GAL4-fused RORgammat at 10 to 20 uM after 24 hrs by propidium iodide staining based flow cytometric method; type: ADME; conditions: human, hek293, 24 h
HepG2 [11] = assay: Cytotoxicity against human HepG2 cells assessed as effect on cell viability at 6.25 uM after 24 hrs by MTT assay; type: cell-based; conditions: hepg2, 24 h
HepG2 [12] = assay: Cytotoxicity against human HepG2 cells assessed as effect on cell viability at 6.25 to 50 uM after 24 hrs by MTT assay; type: cell-based; conditions: hepg2, 24 h

| SMILES | Activity (Estrogen receptor [2]) | Activity (Estrogen receptor [3]) | Activity [4] | IC50 [5] [µM] | Activity (HepG2 [1]) | Activity (HEK293 [6]) | Activity (HEK293 [7]) | Activity (HepG2 [8]) | Activity (HEK293 [9]) | Activity (HEK293 [10]) | Activity (HepG2 [11]) | Activity (HepG2 [12]) |
| --- | --- | --- | --- | --- | --- | --- | --- | --- | --- | --- | --- | --- |
| C[C@]12CC[C@@H]3c4cc(-c5ccc(-c6ccccc6)cc5)c(O)cc4CC[C@H]3[C@@H]1CC(C(=O)O)C2O (stereo not given in full) | – | – | – | – | – | – | – | – | – | – | Toxic | – |
| C[C@]12CC[C@@H]3c4cc(-c5cccc6c5oc5ccccc56)c(O)cc4CC[C@H]3[C@@H]1CC(C(=O)O)C2O (stereo not given in full) | – | – | Dose-dependent effect | 4.7 | – | Non-Toxic | Non-Toxic | Non-Toxic | Non-Toxic | Non-Toxic | – | Non-Toxic |
| C[C@]12CC[C@@H]3c4cc(-c5ccccc5)c(O)cc4CC[C@H]3[C@@H]1CC(C(=O)O)C2O (stereo not given in full) | – | – | – | – | – | – | – | – | – | – | Toxic | – |
| COc1cc2c(cc1C13CC4CC(CC(C4)C1)C3)[C@H]1CC[C@]3(C)C=C(C(=O)O)C[C@H]3[C@@H]1CC2 | Not Active | Not Active | Dose-dependent effect | 6.8 | – | Non-Toxic | Non-Toxic | Non-Toxic | Non-Toxic | Non-Toxic | – | Non-Toxic |

Continued, in another order:

| Activity (Estrogen receptor [2]) | Activity (Estrogen receptor [3]) | Activity [4] | IC50 [5] [µM] | SMILES | Activity (HepG2 [1]) | Activity (HEK293 [6]) | Activity (HEK293 [7]) | Activity (HepG2 [8]) | Activity (HEK293 [9]) | Activity (HEK293 [10]) | Activity (HepG2 [11]) | Activity (HepG2 [12]) |
| --- | --- | --- | --- | --- | --- | --- | --- | --- | --- | --- | --- | --- |
| Not Active | Not Active | Dose-dependent effect | 4.4 | C[C@@]12C=C(C(=O)O)C[C@H]1[C@@H]1CCc3cc(O)c(C(=O)c4ccccc4)cc3[C@H]1CC2 | Toxic | Non-Toxic | Non-Toxic | Non-Toxic | Non-Toxic | Non-Toxic | – | – |
| Active | Active | Dose-dependent effect | 6.5 | C[C@@]12C=C(C(=O)O)C[C@H]1[C@@H]1CCc3cc(O)c(C45CC6CC(CC(C6)C4)C5)cc3[C@H]1CC2 | – | Non-Toxic | Non-Toxic | Non-Toxic | Non-Toxic | Non-Toxic | – | Non-Toxic |
